Legend:
[1] = test system: A375 (human melanoma) cells; assay: Cellular uptake of radiogallium in cultured A375 cells; format: cell-based; conditions: 1 h
Description: One million A375 (human melanoma) cells were suspended in 0.5 mL of Dulbecco’s Modified Eagle’s Medium (500 mL DMEM, low-glucose medium with 50 mL 10% FBS, 5 mL of L-glutamine, and 5 mL of penicillin and streptomycin) in 1.5 mL Eppendorf tubes. An amount of 10 µL of no-carrier-added [^68Ga]KP46 or [^68Ga]gallium acetate was added to the cell suspensions (giving a ^68Ga concentration of ca. 20 pM) and to similar tubes containing medium but no cells (to check and compensate for adhesion of radioactivity to tubes). Samples were incubated for 60 min at 37 °C under 5% CO2 and then centrifuged (Sci Spin Mini) for three minutes at 1500 RPM. The supernatants were transferred to fresh Eppendorf tubes. The pellets were washed twice with 0.5 mL PBS, following the same centrifugation protocol, and washes were added to the supernatant tubes. Supernatants and cell pellets were measured using a gamma counter to determine the average activity in cell pellets as a % of the total activity for each sample. The intracellular-to-extracellular ^68Ga concentration ratio was also estimated by correcting for the different volume of supernatant and cell pellet using an estimated spherical cell diameter of 17.5 μm, which leads to an estimated volume of the cell pellet (10^6 cells) of 2.8 μL.

[2] = Pilot study 1: oral [68Ga]KP46, mice kept anaesthetised for four hours, ex vivo biodistribution; format: in vivo; conditions: anaesthetised 0-4 h
Description: 67Ga citrate to 67Ga chloride conversion method
67Ga was provided as [67Ga]Ga-citrate, typically 418-430 MBq in 5.5 ml at the time of receipt (76-78 MBq/ml). The 67Ga-citrate solution was passed through a Sep-Pak plus light silica cartridge (part number WAT023537) at a flow rate of 1 ml/min to trap the 67Ga on the silica cartridge. The eluate was passed through again to capture more (total 80%) of the available radioactivity on the cartridge.
The cartridge was then washed twice with 5 ml of H2O to remove citric acid, then eluted with 600 µl of 0.1 M HCl in 50 µl fractions. Fractions with the highest activity (fraction 4, 5, and 6) were used for […]
Tumour xenograft development
500 Figure S11. Tumour growth profile of A375
400 human melanoma cells in female athymic nude mice (2.5 x 10^6 cells). Data are 300 reported as mean ± SD (n=24).
Developing a method for the oral administration of [68Ga]KP46
In the first pilot study, mice bearing a tumour xenograft (A375) were anaesthetised, orally administered with [68Ga]KP46 (10 MBq, 400 µl) and PET scanned (no CT scan was performed) for four hours (n = 1), or orally administered with [68Ga]KP46 (1–2 MBq, 400 µl) and kept anaesthetised for four hours (n = 3), before being culled for organ harvesting and gamma counting. […]
radioactivity was in the stomach, with minimal uptake in the small intestine. […]

[68Ga+3].[O-]c1cccc2cccnc12.[O-]c1cccc2cccnc12.[O-]c1cccc2cccnc12 [[^68Ga]KP46]
cellular uptake (% radioactivity added, corrected for nonspecific binding to vessel) ([1]; DMEM containing FBS, n = 3): 2.55% ± 1% | intracellular-to-extracellular concentration ratio ([1]; corrected data, estimated cell pellet volume 2.8 μL): 14 ± 6 | activity in tumour, ex vivo [2]: 0.6 ± 0.3 %ID/g

Source: publication PMC10609081, “In Vivo Trafficking of the Anticancer Drug Tris(8-Quinolinolato) Gallium (III) (KP46) by Gallium-68/67 PET/SPECT Imaging” (Molecules, 2023)
